Results published in patent US20250289808A1 (BenoBio Co., Ltd, priority 2024, published 2025).

What was measured:
[1] = system: retinal degeneration mouse model; test: Electroretinogram (ERG) in blue LED-induced retinal degeneration mouse model; assay type: in vivo, BALB/c mice; details: compound 24 nM, Eylea 25 mg/kg; for Wavelength enhanced multiple compared to a normal saline-treated group, Average value: average of a-wave and b-wave; for Wavelength enhanced multiple compared to a normal saline-treated group, a-wave / Wavelength enhanced multiple compared to a normal saline-treated group, b-wave: single intravitreal injection 1 hour after LED exposure
[2] = system: macular degeneration animal model; test: Laser-induced macular degeneration mouse model, FFA and OCT imaging; assay type: in vivo; details: day 11, compound 0.022 μg/eye, Eylea 20 μg/eye
Procedure: After the mouse was subjected to general anesthesia, the eye was applied with anesthetic eye drops to be subjected to additional local anesthesia and additionally induce mydriasis. A macular degeneration animal model was prepared by destroying the Bruch's membrane by inducing laser burn according to macular degeneration induction conditions. […] On day 11 of macular degeneration induction, the mice were subjected to general anesthesia and then injected intraperitoneally with a fluorescent contrast agent. The mouse was placed on the sacrifice table, lubricating gel was dropped into the corresponding eye, and an OCT lens was brought into contact with the mouse's cornea. Image analysis for fluorescein fundus angiography (FFA) and OCT was performed using the Image-J program.

BRD2 (BD1) = target: T1, BRD2 (BD1) (Homo sapiens, UniProt P25440); test: Binding inhibitory effect on BRD2 protein (AlphaScreen, acetyl-histone H4 peptide); details: GST-BRD2 (BD1) 100 nM, biotinylated acetyl-histone H4 peptide 100 nM
T1 construct: a bromodomain of BRD2 (BD1) and BRD3 (BD1), one of the BET protein family

BRD3 (BD1) = target: T2, BRD3 (BD1) (Homo sapiens, UniProt Q15059); test: Binding inhibitory effect on BRD3 protein (AlphaScreen, same manner as 1-1); details: same manner as Experimental Example 1-1
T2 construct: a bromodomain of BRD2 (BD1) and BRD3 (BD1), one of the BET protein family; GST
T2 sequence (Q15059 34-140 limits assumed): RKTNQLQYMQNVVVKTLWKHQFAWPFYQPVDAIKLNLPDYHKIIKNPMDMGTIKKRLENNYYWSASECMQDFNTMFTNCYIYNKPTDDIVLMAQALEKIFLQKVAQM

T1 sequence (P25440 74-180 limits assumed): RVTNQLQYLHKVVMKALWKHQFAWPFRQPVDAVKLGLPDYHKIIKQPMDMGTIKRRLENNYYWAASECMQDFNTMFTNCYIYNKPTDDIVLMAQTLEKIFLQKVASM

SMILES	Wavelength enhanced multiple compared to a normal saline-treated group, Average value [1]	Wavelength enhanced multiple compared to a normal saline-treated group, a-wave [1]	Wavelength enhanced multiple compared to a normal saline-treated group, b-wave [1]	CTF value ([2]; FFA imaging)	Lesion size compared to negative control group ([2]; FFA imaging) [%]	Lesion size compared to negative control group ([2]; OCT imaging) [%]	Volume of lesion ([2]; OCT imaging)	IC50 (BRD2 (BD1)) [µM]	IC50 (BRD3 (BD1)) [µM]
CNC(=O)CC1C(=O)NCCN1Cc1oc(-c2ccccc2-c2cccc3c2CN(C)C3=O)cc1C (stereo not shown) [Compound 42, 2-methyl-4-(2-(5-(3-methyl(N-methyl-2-(3-oxopiperazine-2yl)acetamidyl)methyl)furan-2-yl)phenyl)isoindoline-1-one]	1.32	1.25	1.38	381,846 Pixels	41.48	52.86	1,151,561 μm^3	–	–
CCC1(C(=O)NC)CCCN(Cc2oc(-c3ccccc3-c3cccc4c3CN(C)C4=O)cc2C)C1 (stereo not shown) [Compound 40]	1.30	1.16	1.43	362,456 Pixels	39.37	54.01	1,176,522 μm^3	–	–
CC(C)NCc1ccc(-c2ccccc2-c2cccc3c2CN(C)C3=O)o1 [Compound 8, 2-methyl-4-(2-(5-((isopropylamino)methyl)furan-2-yl)phenyl)isoindoline-1-one]	–	–	–	–	–	–	–	16.6	–
CN1Cc2c(cccc2-c2ccccc2-c2ccc(CN3CCOCC3)o2)C1=O [Compound 13, 2-methyl-4-(2-(5-(morpholinomethyl)furan-2-yl)phenyl)isoindoline-1-one]	1.33	1.29	1.36	321,816 Pixels	34.96	57.66	1,256,002 μm^3	–	–
CNC(=O)C1(C)CN(Cc2ccc(-c3ccccc3-c3cccc4c3CN(C)C4=O)o2)CCC1O (stereo not shown) [Compound 25]	1.27	1.52	1.01	300,650 Pixels	32.66	44.01	958,694 μm^3	–	–
CNC(=O)C1(Cc2ccc(F)cc2)CCN(Cc2oc(-c3ccccc3-c3cccc4c3CN(C)C4=O)cc2C)CC1 [Compound 39, 2-methyl-4-(2-(5-((3-methyl (4-(4-fluorobenzyl)-4′-carboxamidyl)piperidine)methyl)furan-2-yl)phenyl)isoindoline-1-one]	1.36	1.21	1.51	252,108 Pixels	27.38	58.10	1,265,636 μm^3	–	–
CNC(=O)CC1C(=O)NCCN1C(=O)c1ccc(-c2ccccc2-c2cccc3c2CN(C)C3=O)o1 (stereo not shown) [Compound 35]	–	–	–	–	–	–	–	12.3	1.22
CN1Cc2c(cccc2-c2ccccc2-c2ccc(COCN3CCC(F)(F)CC3)o2)C1=O [Compound 37, 2-methyl-4-(2-(5-((((4,4-difluoropiperidine-1-yl)methoxy)-3-carboxamidyl)methyl)furan-2-yl)phenyl)isoindoline-1-one]	1.38	1.45	1.31	320,028 Pixels	34.76	46.40	1,010,752 μm^3	–	–
CNC(=O)C1(Cc2ccccc2)CCCN(Cc2ccc(-c3ccccc3-c3cccc4c3CN(C)C4=O)o2)C1 (stereo not shown) [Compound 27]	–	–	–	–	–	–	–	14.1	2.54
CN1Cc2c(cccc2-c2ccccc2-c2ccc(CNCc3cnn(C)c3)o2)C1=O [Compound 18, 2-methyl-4-(2-(5-((((1-methyl-1H-pyrazole-4yl)methyl)amino)methyl)furan-2-yl)phenyl)isoindoline-1-one]	2.04	2.05	2.03	389,222 Pixels	42.28	45.15	983,477 μm^3	–	–
CNC(=O)C1(Cc2ccc(F)cc2)CCN(Cc2ccc(-c3ccccc3-c3cccc4c3CN(C)C4=O)o2)CC1 [Compound 21, 2-methyl-4-(2-(5-(((4-(4-fluorobenzyl)-4′-carboxamidyl)piperidine)methyl)furan-2-yl)phenyl)isoindoline-1-one]	2.30	2.17	2.42	251,239 Pixels	27.29	40.79	888,502 μm^3	–	–
